Data taken from patent US20120201981A1, “COMBINATIONS OF BIOLOGICAL CONTROL AGENTS WITH A NEMATICIDAL SEED COATING” (priority 2006, published 2012).

Legend:
[1] = system: root-knot nematodes, Meloidogyne incognita race 1; assay: Cucumber green house trial, cucumber seed coating trial 1; assay type: in vivo; details: for main vine length (cm) @ 8 weeks / number egg masses/root / plant dry weight (g) @ 8 weeks / plant height (mm) @ 3 weeks / root galling @ 8 weeks: cucumber, rkn, mean ± SE; for root galling @ 8 weeks: scale 0-10 (0=no galling)
Description: (§1) Pots (10-cm diameter) were filled with 250 g (dry weight) steam-pasteurized river bottom sand. Ten treatments with 6 replications were prepared (Table 1). The fungal antagonist Pochonia chlamydosporia was grown on autoclaved moist millet seed for three weeks at 22° C. Colonized millet was dried in a laminar flow hood, and stored aseptically at 4° C. until use. For soil inoculation, P. chlamydosporia-colonized millet was thoroughly mixed with the sand. Population density of the fungus was approximately 2000 chlamydospores/cc soil for rate 1 and 4000 chlamydospores/cc soil for rate 2.
(§2) The nematode inoculum was raised during the previous 3 months on tomato plants (Lycopersicum esculentum cv. Tropic) in the greenhouse. Nematode eggs were obtained by standard bleach/sieving extraction. With the exception of the first treatment, each pot was infested with ca. 30000 eggs of M. incognita. This is a typical infestation level for nematicide tests resulting in high disease pressure (expected gall rating for non-treated control at 8 weeks was approximately 7 on a scale of 0-10 (Zeck, Pflanzenschutz-Nachrichten, Bayer AG, 24:141-144, 1971). Cucumber seeds (Cucumis sativus L. cv. Straight Eight, Burpee Seed Co.) were coated with either0.1 mg or 0.3 mg abamectin/seed or received no further treatment. Each pot received slow-release fertilizer (Osmocote Vegetable and Bedding Plant Food, 14-14-14, The Scotts Company) recommended for tomato production. The pots were arranged in a randomized complete block design in a greenhouse at ca. 24°±3° C. and ambient lighting. Irrigation was applied daily as needed. Three and eight weeks after seeding plant height or main vine length was determined. Eight weeks after seeding the trial was terminated and the plant tops were cut off. They were placed in a drying oven overnight and their weight was determined. The roots were placed in eryoglaucin solution overnight and the stained egg masses of the root-knot nematodes were counted. Root galling was rated on a scale of 0-10 (0=no galling). The trial was repeated once.

[2] = system: Meloidogyne incognita race 3; assay: Root-knot nematode trial on tomato, abamectin seed coating with soil application of Pasteuria penetrans
Description: Abamectin coated (0.3 mg a.i./seed) and non-treated tomato seed (cv. Kirby) was provided by Syngenta Crop Protection. The treatments were seeded in individual seedling trays. After 3 weeks incubation in a greenhouse at 25°±2° C., the seedlings were transplanted into 1500 cm^3 pots containing the test soil. The soil was collected from a field at the UC South Coast Research and Extension Center at Irvine (San Emigdio sandy loam, 12.5% sand, 12% clay, 75.4% silt, 0.45 OM, pH 7.4). To improve soil aeration and irrigation water drainage, ⅔ of the soil was mixed with ⅓ (v/v) plaster sand. The soil was pasteurized and infested with root-knot nematodes. Meloidogyne incognita race 3 inoculum was reared on tomato cv. UC 82 for ca. three months in greenhouse cultures. Nematode eggs were harvested from the root systems by a modification of a bleach/sieving method (Hussey and Barker, Plant Disease Reporter, 57:1025-1028 (1973)) and used to infested the test soil with 1000 eggs of M. incognita race 3 per 100 cm^3. Pasteuria penetrans was obtained from the University of California Riverside Nematology culture collection. The inoculum was reared on root-knot nematode-infested tomato plants. In the Pasteuria treatments, the soil was amended with approximately 1×10^5 endospores/g soil. The trial was arranged as a complete randomized block with 6 replications and incubated in a greenhouse at 26°±2° C. with ambient light. All pots were fertilized with Osmocote 14-14-14 (label rate for tomato production). Irrigation was applied as needed. Two months after transplanting, plant tops were cut off at the soil level, oven dried and weighted. Roots were rated for galling on a scale of 0-10 (Zeck, Bayer AG, Pflanzenschutz-Nachrichten, 24:141-144 (1971)).

[3] = system: root-knot nematodes, Meloidogyne incognita race 1; assay: Tomato green house trials (data of two trials combined); assay type: in vivo; details: for J2/50 ml soil / Plant dry weight(g) / Plant height(cm) / egg count/root / egg masses/root / Root galling / fruit weight (g) / number of fruits/plant / total fruit weight/plant (g): tomato, rkn, mean ± SE; for J2/50 ml soil / Plant dry weight(g) / Plant height(cm) / egg count/root / egg masses/root / Root galling: trial termination; for Root galling: scale from 0-10; for fruit weight (g): average fruit weight
Description: The greenhouse trials were conducted in pulp pots (10-cm diameter) filled with steam-pasteurized sand (250 cm^3). The biological control organism (BCO) P. chlamydosporia was grown as described above. P. chlamydosporium-inoculated millet seed were washed (1:2 weight/volume millet seed and sterile distilled water, 2 min shaking in electric blender) and passed through a 100-mesh sieve to remove the millet from the fungal chlamydospores. These served as the inoculum and were counted with a counting chamber (Fuchs-Rosenthal). The chlamydospores were thoroughly mixed with the sand. Population density of fungus was approximately 2000 chlamydospores/g soil for rate 1 and 4000 chlamydospores/g soil for rate 2 (Table 1). Tomato seeds (Lycopersicum esculentum cv. Tiny Tim) were coated with either 0.1 mg or 0.3 mg abamectin/seed or received no further treatment (Table 1). The tomato seeds were sown into seeding trays with commercial seedling substrate and after 2 weeks the plants were transplanted into 10-cm pulp pots. With the exception of the first treatment, each pot was infested with ca. 30000 eggs of M. incognita. Egg hatch rate was approximately 10% on Baerman funnels at 26° C. for 5 days. Each pot received slow release fertilizer (Osmocote Vegetable and Bedding Plant food, 14-14-14, The Scotts Company). Pots were arranged in a randomized complete block design with 6 replications per treatment and incubated in greenhouse at ca. 24±3C and ambient lighting. Plants were watered daily as needed. Plant height was determined and the shoots were cut off at the end of the trial. Shoots be placed in a drying oven at 69° C. for 72 h and the weight of each plant was determined. The extent of root galling was assessed on a scale from 0-10 (Zeck, 1971, supra).
Nematode populations were determined by counting egg masses (=number of fecundate females), eggs and second-stage juvenile (J2). The roots were placed in eryoglaucin solution overnight to stain egg masses of the root-knot nematodes which enabled their enumeration (Omwega et al., 1988). The eggs were released from egg masses through a modified bleach/sieving extraction technique (Hussey and Barker, 1973). Each week, ripe (red) tomato fruits were picked off, and the number and weight were recorded. Picking was continued until fruit production seized. The trial was repeated once. All data were subject to analysis of variation with SuperANOVA (Abacus Concepts, 1989, Berkeley, Calif.). If appropriate, Fisher's Protected Least Significant Difference (LSD) was used to separate means at P=0.05.

[4] = system: M. incognita race 1; assay: Tomato miniplot field trial; assay type: in vivo, Meloidogyne incognita; details: P. chlamydosporia 4000 chlamydospores/cm^3 substrate
Description: Nine miniplots (3 m diameter, 12 cm deep) were each filled with approximately 350000-cm^3 field soil (sandy loam, pH 7.2) obtained from an adjacent field with no significant infestation of plant-parasitic nematodes. Tomato seedlings (Lycopersicum esculentum cv. Tiny Tim) were raised from abamectin-treated seed (0.3 mg a.i./seed) or from Apron/Maxim-treated seed. They were seeded in seedling trays with commercial transplant substrate (Sunshine mix). The substrate was either non-amended or amended with P. chlamydosporia (4000 chlamydospores/cm^3 substrate). After 3 weeks in a greenhouse, the seedlings were transplanted into the 9 miniplots. Each plot was a randomized block with 4 treatments and three plants per treatment. Each planting area was infested by distributing 10,000 eggs of M. incognita race 1 into three 5 cm deep holes approximately 5 cm from each transplant. The plots were irrigated via low-pressure irrigation and fertilized according to local standard. After approximately 10 weeks the plants set fruit and were harvested three times during the following 3 weeks. Number of fruits and weight were taken. All data were subject to ANOVA and mean separation with Fisher's LSD (P=0.05).

[5] = system: root-knot nematodes, Meloidogyne incognita race 1; assay: Cucumber green house trial, cucumber seed coating trial 2; assay type: in vivo; details: rkn, mean ± SE
Description: as §1, §2

[6] = abamectin seed coating 0.1 mg/seed
[7] = abamectin seed coating 0.3 mg/seed
[8] = tomato cv. Kirby, two months after transplanting, mean ± SE, abamectin seed coated 0.3 mg a.i./seed, P. penetrans soil incorporated 1 × 10E5/g soil
[9] = tomato miniplots, 10,000 eggs per planting area, mean ± SE, abamectin 0.3 mg/seed

Substance: abamectin
- plant growth compared to the non-treated control plants (in words) ([1]; cucumber trial 1, 0.3 mg/seed rate of abamectin): significant increases in early plant growth as well as in plant dry weight and main vine length
- plant growth and root galling (in words) ([1]; cucumber trial 1, low rate of abamectin): neither plant growth was improved nor root galling was significantly reduced
- main vine length (cm) @ 8 weeks [1, 6]: 100.7 ± 8.8 ab cm
- number egg masses/root [1, 6]: 108.2 ± 14.0 ab
- plant dry weight (g) @ 8 weeks [1, 6]: 4.2 ± 0.4 a g
- plant height (mm) @ 3 weeks [1, 6]: 70.8 ± 2.3 a mm
- main vine length (cm) @ 8 weeks [1, 7]: 127.8 ± 11.9 cde cm
- number egg masses/root [1, 7]: 85.8 ± 12.8 ab
- plant dry weight (g) @ 8 weeks [1, 7]: 5.7 ± 0.4 bc g
- plant height (mm) @ 3 weeks [1, 7]: 90.8 ± 7.1 bc mm
- root galling @ 8 weeks [1, 6]: 6.3 ± 0.6 de
- root galling @ 8 weeks [1, 7]: 5.8 ± 0.4 cde
- J2/50 cc soil ([2]; tomato cv. Kirby, trial termination, mean ± SE, abamectin seed coated 0.3 mg a.i./seed, P. penetrans soil incorporated 1 × 10E5/g soil): 95 ± 15 b
- plant top dry weight (g) [2, 8]: 31.3 ± 1.8 ab g
- root gall rating (0-10) [2, 8]: 3.3 ± 0.3 ab
- root galling (in words) ([2]; tomato, abamectin 0.3 mg a.i./seed, P. penetrans 1×10^5 endospores/g soil): reduced galling by approximately two rating classes
- root galling reduction (in words) ([3]; tomato greenhouse, abamectin seed coating alone): approximately two rating classes below the check
- J2/50 ml soil [3, 6]: 20.3 ± 4.3ab
- Plant dry weight(g) [3, 6]: 5.24 ± 0.35b g
- Plant height(cm) [3, 6]: 27.33 ± 0.72cd cm
- egg count/root [3, 6]: 346133 ± 39003 days
- egg masses/root [3, 6]: 454.2 ± 62.7c
- J2/50 ml soil [3, 7]: 7.2 ± 5.4ab
- Plant dry weight(g) [3, 7]: 6.31 ± 0.21c g
- Plant height(cm) [3, 7]: 26.17 ± 2.14bc cm
- egg count/root [3, 7]: 205867 ± 66056bc
- egg masses/root [3, 7]: 381.7 ± 120.3c
- Root galling [3, 6]: 6.67 ± 0.21ef
- Root galling [3, 7]: 5.00 ± 0.52c
- fruit weight (g) [3, 6]: 5.19 ± 0.18bc g
- fruit weight (g) [3, 7]: 6.00 ± 0.14c g
- number of fruits/plant [3, 6]: 31.0 ± 4.6bcd
- total fruit weight/plant (g) [3, 6]: 160.3 ± 22.8bc g
- number of fruits/plant [3, 7]: 40.5 ± 1.5cde
- total fruit weight/plant (g) [3, 7]: 243.3 ± 11.8 g·days
- yield (in words) ([4]; tomato miniplot field trial, abamectin 0.3 mg a.i./seed): increased the yield significantly
- M. incognita eggs/plant [4, 9]: 171,400 ± 37,100 a
- number fruits/plant [4, 9]: 69.0 ± 3.2 b
- root galling at harvest [4, 9]: 4.5 ± 0.2 c
- total fruit weight/plant [4, 9]: 290.6 ± 12.6 b
- main vine length (cm) @ 8 weeks [5, 6]: 146.2 ± 9.8 c cm
- number egg masses/root system @ 8 weeks [5, 6]: 80.8 ± 27.8 b
- plant dry weight (g) @ 8 weeks [5, 6]: 6.4 ± 0.5 c g
- plant height (mm) @ 3 weeks [5, 6]: 96.2 ± 6.4 bcd mm
- root galling @ 8 weeks (scale 0-10) [5, 6]: 5.3 ± 0.2 abc
- main vine length (cm) @ 8 weeks [5, 7]: 131.3 ± 6.2 bc cm
- number egg masses/root system @ 8 weeks [5, 7]: 36.7 ± 4.0 a
- plant dry weight (g) @ 8 weeks [5, 7]: 6.0 ± 0.3 bc g
- plant height (mm) @ 3 weeks [5, 7]: 105.8 ± 5.3 cde mm
- root galling @ 8 weeks (scale 0-10) [5, 7]: 5.0 ± 0.4 ab
